{"source": "patent US11590103B2", "about": "“Ascorbate in the prevention of statin induced vascular calcification” (priority 2019, dated 2023)", "format_in_all_cases": "cell-based", "key": {"[1]": {"system": "human aortic smooth muscle cells (AoSMC)", "experiment": "Calcium accumulation in extracellular matrix of cultured AoSMC", "method": "(§1) Cell viability was monitored with MTT assay.\nAoSMC were seeded on fibronectin covered plastic plates at density 25,000 per square cm and grown to confluence for 5-7 days. […] J Cardiovasc Pharmacol 2008; 52:55-65. After four washes with PBS, ECM layers were solubilized by incubation in 0.6N HCl for 48 hours at 37° C. Calcium content in solubilized samples was measured with TECO Ca assay according to manufacturer's protocol."}, "[2]": {"system": "human aortic smooth muscle cells (AoSMC)", "experiment": "Alkaline phosphatase activity assay in AoSMC", "conditions": "300 mcM ascorbate, regular growth medium, FIG. 1", "method": "AoSMC were plated in 96 well plates and grown to confluent layer. Cells were incubated with ascorbic acid in growth medium for three days. Cells were washed with phosphate buffered saline (PBS) and supplemented with 50 mcl/well 25 mcg/ml 4-MUP (fluorescent ALP substrate, Sigma) in alkaline buffer (Sigma)/1% Triton X100 for 1 h at room temperature. Fluorescence was measured at 360/450 nm."}, "[3]": {"system": "human aortic smooth muscle cells (AoSMC)", "experiment": "Expression of osteoblast markers in AoSMC (immunoassay)", "conditions": "100 mcM ascorbic acid, medium with 5 mM beta-glycerophosphate and 25 mcM forskolin, FIG. 3", "method": "as §1\n(§2) For the experiments AoSMC, DF and hFOB cells were seeded in separate 96 well plastic plates at density 25,000 per square cm and grown to confluence for 5-7 days. Tested compounds were added to cells at indicated concentrations for 72 hours in DMEM supplemented with 2% FBS. Cell layers were washed three times with PBS and fixed with 3% formaldehyde in PBS at 4° C. for one hour. Fixed cell layers were washed four times with PBS and treated with 1% BSA/PBS for one hour at RT. Immunoassay for osteogenic markers was done by sequential incubation with primary monoclonal antibodies (R&D Systems) in 1% BSA/PBS for 2 hours followed by 1 hour incubation with secondary goat anti-mouse IgG antibodies labeled with horse radish peroxidase (HRP). Retained peroxidase activity was measured after the last washing cycle (three times with 0.1% BSA/PBS) using TMB peroxidase substrate reagent (Rockland). Optical density was read with plate reader (Molecular Devices) at 450 nm and expressed as percentage of control cell samples incubated in unsupplemented 2% FBS/DMEM. To ensure a direct comparison of osteogenic markers expression on different cell types all pcell covered plates were treated identical and simultaneously during immunoassay."}, "[4]": {"system": "human dermal fibroblasts (DF)", "experiment": "Expression of osteoblast markers in dermal fibroblasts (immunoassay)", "conditions": "100 mcM ascorbic acid, medium with 5 mM beta-glycerophosphate and 25 mcM forskolin, FIG. 3", "method": "as §1, §2"}, "[5]": {"conditions": "100 mcM ascorbate concomitant with simvastatin, without forskolin, FIG. 2A"}}, "data": [{"molecule": "O=C1O[C@H]([C@@H](O)CO)C(O)=C1O", "note": "[ascorbic acid, L-ascorbic acid]", "values": [{"measurement": "decrease of calcium accumulation", "setting": "[1]; 100 mcM ascorbate added to 1 mM mevastatin, with 25 mcM forskolin, FIG. 2B", "result": 19, "unit": "%"}, {"measurement": "accumulated calcium", "setting": "[1]; [5]", "result": 0.2, "unit": "mcg/well"}, {"measurement": "decrease of accumulated calcium", "setting": "[1]; [5]", "result": 54, "unit": "%"}, {"measurement": "decrease of extracellular Ca accumulation by AoSMC", "setting": "[1]; 300 mcM ascorbate, regular growth medium, FIG. 1", "result": 20, "unit": "%"}, {"measurement": "decrease of cellular alkaline phosphatase activity", "setting": "[2]", "result": 80, "unit": "%"}, {"measurement": "expression of all tested osteogenic markers", "setting": "[3]", "result": "significantly reduced"}, {"measurement": "expression of all tested osteogenic markers", "setting": "[4]", "result": "significantly reduced"}]}, {"molecule": "CC[C@H](C)C(=O)O[C@H]1CCC=C2C=C[C@H](C)[C@H](CC[C@@H]3C[C@@H](O)CC(=O)O3)[C@H]21", "note": "[mevastatin]", "values": [{"measurement": "calcium accumulation", "setting": "[1]; 1 mM mevastatin, with 25 mcM forskolin, FIG. 2B, control 1.35 mcg/well", "result": 1.8, "unit": "mcg/well"}]}, {"molecule": "CCC(C)(C)C(=O)O[C@H]1C[C@@H](C)C=C2C=C[C@H](C)[C@H](CC[C@@H]3C[C@@H](O)CC(=O)O3)[C@H]21", "note": "[simvastatin]", "values": [{"measurement": "increase of calcium accumulation in AoSMC layers", "setting": "[1]; in the presence of simvastatin, without forskolin, FIG. 2A", "result": 23, "unit": "%"}]}]}
